Assay: Spectral measurements: absorbance and emission spectra, Beckman DU7400 spectrophotometer, water media
Assay type: physicochemical
Protocol: Unless otherwise stated, ultraviolet spectra (UV) were recorded for samples dissolved in MeOH or water contained in a one cm path length quartz cell using a Beckman DU-7400 spectrophotometer.

In the case of `CCN1/C(=C/C=C/C=C/C2=[N+](CCCCCC(=O)O)c3ccc(S(=O)(=O)O)cc3C2(C)C)C(C)(C)c2cc(S(=O)(=O)[O-])ccc21` [Cy5], the “Abs (H2O), Cyanine Dyes” value (absorbance maximum of the free cyanine dye in water) was 649 nm and the “Em (H2O)” value (emission maximum in water, column stands after the cyanine dye columns) was 675 nm.

— patent publication US20060281100A1, “Thiotriphosphate nucleotide dye terminators” (priority 2005, published 2006)
